Experimental findings from patent publication US20220298146A1, “HETEROCYCLIC DERIVATIVE AND USE THEREOF” (Transthera Sciences (Nanjing), Inc., priority 2019, published 2022) are described below.

One data set deals with T1, Tyro-3 (h) (Homo sapiens, UniProt Q06418).
T1 construct: purchased
T1 sequence (Q06418 41-890): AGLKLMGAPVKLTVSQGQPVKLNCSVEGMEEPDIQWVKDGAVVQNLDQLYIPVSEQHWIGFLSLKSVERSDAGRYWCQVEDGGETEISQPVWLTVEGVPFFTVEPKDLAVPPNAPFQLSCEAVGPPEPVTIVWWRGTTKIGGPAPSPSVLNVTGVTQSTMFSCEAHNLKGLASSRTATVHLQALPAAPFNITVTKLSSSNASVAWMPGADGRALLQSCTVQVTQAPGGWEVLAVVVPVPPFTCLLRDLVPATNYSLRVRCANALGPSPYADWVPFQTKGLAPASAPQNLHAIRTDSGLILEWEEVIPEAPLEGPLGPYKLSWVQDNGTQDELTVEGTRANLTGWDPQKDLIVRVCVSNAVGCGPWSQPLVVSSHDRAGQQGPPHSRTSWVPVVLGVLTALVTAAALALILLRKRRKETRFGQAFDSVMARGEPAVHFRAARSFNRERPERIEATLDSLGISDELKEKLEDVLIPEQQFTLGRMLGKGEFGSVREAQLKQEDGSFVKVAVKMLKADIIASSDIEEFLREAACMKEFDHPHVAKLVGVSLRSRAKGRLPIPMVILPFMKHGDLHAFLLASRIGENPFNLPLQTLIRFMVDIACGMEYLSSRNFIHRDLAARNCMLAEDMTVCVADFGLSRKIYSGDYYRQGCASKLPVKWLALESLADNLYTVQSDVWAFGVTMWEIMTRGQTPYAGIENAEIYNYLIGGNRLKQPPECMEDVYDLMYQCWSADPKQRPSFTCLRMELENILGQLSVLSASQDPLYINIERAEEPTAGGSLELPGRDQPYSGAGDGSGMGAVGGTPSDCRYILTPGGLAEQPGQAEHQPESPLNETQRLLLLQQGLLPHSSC
The data set is described as follows: Enzymatic activity assay, Tyro-3 (h) kinase, [γ-33P]-ATP. Type of data set: biochemical. The settings on record: 10 μM [γ-33P]-ATP, 40 min, room temperature; read-out: Inhibitory Activity on Tyro-3 (h), IC50. The method, then:
Test samples: the compounds of the present invention, having structures and preparation methods shown above.
(1) Preparation of Compound Stock Solutions
Compounds were each dissolved in 100% DMSO to prepare stock solutions with a maximum concentration of 500 μM.
(2) Preparation of Compound Working Solutions
The compound stock solutions were diluted to final concentrations of 500 μM, 150 μM, 50 μM, 15 μM, 5 μM, 1.5 μM, 0.5 μM, 0.15 μM and 0.05 μM to prepare compound working solutions (50×).
(3) Preparation of different enzymatic reaction solutions
Tyro3 (h) enzyme was dissolved in a mixture of 8 mM MOPS (pH 7.0), 0.2 mM EDTA, 1 mM MnCl2 and 250 μM KVEKIGEGTYGVVYK to prepare an enzyme solution with a final concentration of 38 nM. An Mg/ATP mixture of 10 mM magnesium acetate and 10 μM [γ-^33P]-ATP was used to activate the enzymatic reaction.
The compound working solutions were added to a 384-well plate, with final concentrations of 10000 nM, 3000 nM, 1000 nM, 300 nM, 100 nM, 30 nM, 10 nM, 3 nM and 1 nM, respectively, and then different enzymatic reaction solutions prepared according to the above conditions were added. The reaction solutions were incubated at room temperature for 40 min, and then 0.5% phosphoric acid solutions were added to terminate the reaction. 10 μL of the reaction solution was added dropwise to P30 filter paper which was washed 4 times with a 0.425% phosphoric acid solution and once with methanol and then placed in a scintillation counter for detection. Gray analysis was performed on the results with Image J software, and IC50 values were calculated with GraphPad 5.0 software.

Data set [1] in a line: Beagle PK evaluation experiment. Conditions: dog, plasma. In kind it is in vivo. The protocol:
Test samples: the compounds of the present invention, prepared according to exemplary methods.
Administration and Sample Collection:
Experimental compounds 11, 12 and 35 were each dissolved in a mixture of 5% DMSO+20% (30% Solutol)+75% saline to prepare solutions. The compound solutions were administrated via intragastric gavage to beagles at a dose of 1.0 mg/kg, respectively. The blood was collected at time points of 0 min, 15 min, 30 min, 1 h, 2 h, 4 h, 6 h, 8 h, 10 h and 24 h.
Experimental compounds 11, 12 and 35 were each dissolved in a mixture of 5% DMSO+20% (30% Solutol)+75% saline to prepare solutions. The compound solutions were intravenously injected into beagles at a dose of 1.0 mg/kg, respectively. The blood was collected at time points of 0 min, 5 min, 15 min, 30 min, 1 h, 2 h, 4 h, 6 h, 8 h, 10 h and 24 h. […]
Experimental compound 17 and compound 37 were each dissolved in a mixture of 5% DMSO+20% PEG400+75% (20% Captisol in Water) to prepare solutions. The compound solutions were intravenously injected into beagles at a dose of 1.0 mg/kg, respectively. The blood was collected at time points of 0 min, 5 min, 15 min, 30 min, 1 h, 2 h, 4 h, 6 h, 8 h, 10 h and 24 h. […]
Experimental compound 18 was dissolved in a mixture of 5% DMA+30% PEG400+65% (20% Captisol in Saline) to prepare a solution. The compound solution was intravenously injected into a beagle at a dose of 1.0 mg/kg. The blood was collected at time points of 0 min, 5 min, 15 min, 30 min, 1 h, 2 h, 4 h, 6 h, 8 h, 10 h and 24 h.
About 1 mL of blood was collected via the upper extremity, and the collected blood was placed in an anticoagulation tube containing EDTA-K2. The blood samples were centrifuged at 1800 g for 5 min at 4° C. to give plasma samples which were prepared within 30 min after blood collection. The plasma samples were stored in a refrigerator at −80° C. before test.
The samples to be tested were taken out from the refrigerator at −80° C., and vortexed for 5 min after naturally thawed at room temperature. 20 μL of plasma samples were each pipetted into a 1.5 mL centrifuge tube, and 200 μL of internal standard working solution (a solution of tolbutamide in methanol) at 100 ng/mL was added. The resulting mixture was mixed well, vortexed for 5 min, and then centrifuged at 12,000 rpm for 5 min. 50 μL of the supernatant was pipetted into a 96-well plate with 150 μL of water per well, and the plate was vortexed for 5 min and mixed well before LC-MS/MS analysis.
The concentrations of test samples were calculated by Analyst 1.6.3 from AB Sciex. Parameters such as mean, standard deviation and coefficient of variation (excluding those output directly by Analyst 1.6.3) were calculated by Microsoft Excel. PK parameters were calculated by Pharsight Phoenix 6.1 software NCA (Tmax was in median).

Where two headings read alike, the source gives them in different places.

One may read the IC50 as the concentration that inhibits the measured activity by half. Usually clearance stands for the volume of plasma or blood freed of the substance per unit of time. Usually bioavailability stands for the share of a dose that reaches the circulation, judged against a reference dose that is usually intravenous. As to `CC(C)n1cc(-c2ccc(F)cc2)c(=O)c(C(=O)Nc2ccc(Oc3ccnc(N)c3Cl)cn2)n1` [Compound 11, N-(5-((2-amino-3-chloropyridin-4-yl)oxy)pyridin-2-yl)-5-(4-fluorophenyl)-1-isopropyl-4-oxo-1,4-dihydropyridazine-3-carboxamide], on Tyro-3 (h), the IC50 turned out to be 54 nM. The AUC(0-t) in data set [1] (iv, dose 1 mg/kg, n=3, read-out: AUClast iv (area under concentration-time curve for 0-24 h)) was determined as 3320 ng·h/mL; in data set [1] (po (gavage), dose 1 mg/kg, n=3, read-out: AUClast po (area under concentration-time curve for 0-24 h)) it was 1360 ng·h/mL. For the same compound, the clearance in data set [1] (iv, dose 1 mg/kg, n=3, read-out: Cl_obs iv (clearance rate) (converted)) was 4.33 mL/min/kg. Moreover, the Vd in data set [1] (iv, dose 1 mg/kg, n=3, read-out: Vz_obs iv (apparent volume of distribution)) came out at 5.36 L/kg. Further, the half-life in data set [1] (iv, dose 1 mg/kg, n=3, read-out: tz1/2 iv (terminal half-life) (converted)) was 15 h; in data set [1] (po (gavage), dose 1 mg/kg, n=3, read-out: tz1/2 po (terminal half-life) (converted)), 5.97 h. In addition, the bioavailability in data set [1] (iv/po dose 1/1 mg/kg, n=3, read-out: F % (absolute bioavailability)) came to 37.3%. Besides, the Tmax in data set [1] (po (gavage), dose 1 mg/kg, n=3, median, read-out: Tmax po (time to maximum plasma concentration)) was found to be 1 h.
